Here are results for four molecules from US6180629A, “[4,5]-Fused-1,3-disubstituted-1,2-diazine-6-one derivatives with nitrogen containing substitutents in position one for the treatment of neoplasia” (Cell Pathways, Inc., priority 1998, dated 2001).

In data set [1] the test system is SW-480 colon adenocarcinoma cells. The experiment in a line: Apoptosis (DNA fragmentation) in SW-480 colon adenocarcinoma cells, Cell Death Detection ELISA. Particulars: for fold induction at 100 µM: SW480, read-out: DNA Fragmentation FS (Fold stimulation, FS=ODmax/ODveh); for fold induction at 100 µM / EC50: SW-480, 48 hrs; for Apoptosis Level (Mean OD Value ± SD): vehicle 0.175 ± 0.02. The data set is classed as cell-based, human. On the procedure:
Apoptosis was measured using an assay of cell death based on a characteristic feature of apoptotic cells (i.e., fragmented DNA). Briefly, SW-480 colon adenocarcinoma cells were plated in 96-well microtitre plates ("MTP") at a density of 10K cells/well in 180 μl and were incubated for 24 hrs. Cells were then treated with 20 μl aliquots of appropriately diluted compound, and allowed to incubate for an additional 48 hrs.
After the incubation, samples were prepared according to the following steps. The MTP was centrifuged (15 min., 1000 rpm) and the supernatant was carefully removed by fast inversion of the MTP. The cell pellets in each well were resuspended in 200 μl lysis buffer and incubated for 45 min. at room temperature to lyse the cells. The lysates were then centrifuged (15 min., 1000 rpm) and 20 μl aliquots of the supernatant (=cytoplasmicfraction) were transferred into the streptavidin coated MTP for analysis. Care was taken not to shake the lysed pellets in the MTP (=cell nucleii containing high molecular weight, unfragmented DNA). Samples were analyzed immediately, because storage at 4° C. or -20° C. reduces the ELISA-signals.
Samples were then processed according to a DNA fragmentation assay protocol, and dose-response curves were generated based on optical density readings. Quantification of DNA was done by a commercially available photometric enzyme-immunoassay manufactured by Mannheim-Boehringer under the name "Cell Death Detection ELISA^plus ". The assay is based on a quantitative sandwich-enzyme-immunoassay-principle using mouse monoclonal antibodies directed against DNA and histones, respectively. This allows the specific determination of mono and oligonucleosomes in the cytoplasmatic fraction of cell lysates. In brief, the assay procedure is as follows. The sample (cell-lysate, serum, culture-supernatant etc.) is placed into a streptavidin-coated MTP. Subsequently, a mixture of anti-histone-biotin and anti-DNA-POD is followed by incubation for 2 hours. During the incubation period, the anti-histone antibody binds to the histone-component of the nucleosomes and simultaneously fixes the immunocomplex to the streptavidin-coated MTP via its biotinylation. Additionally, the anti-DNA-POD antibody reacts with the DNA component of the nucleosomes. After removal of unbound antibodies by a washing step, the amount of nucleosomes is quantified by the POD retained in the immunocomplex. POD is determined photometrically with ABTS® (2,2'-Azino-di[3-ethylbenzthiazolin-sulfonat]) as substrate.
Fold stimulation (FS=ODmax/ODveh), an indicator of apoptotic response, was determined for each compound tested.

Data set [2] deals with human colon carcinoma cell line, SW-480. The experiment in a line: Growth inhibition of SW-480 human colon carcinoma cells, Sulforhodamine B (SRB) protein binding assay, six days. The data set is classed as cell-based. The following applies: SW480, 144 h. The procedure:
The compounds of Examples 1-3 were assayed for their growth inhibitory activity on the human colon carcinoma cell line, SW-480 obtained from ATCC (Rockville, Md.), to ascertain the degree of growth inhibition. Growth inhibition of this cell line is indicative of a benefit on precancerous lesions and neoplasms. The cell line and growth assay employed for such experiments are well characterized, and are used to evaluate the anti-neoplastic properties of NSAIDs. The assay is used by the United States National Cancer Institute in its screening program for new anti-cancer drugs.
Drug stock solutions were made in 100% DMSO and were then diluted with RPMI media for cell culture testing. All drug solutions were prepared fresh on the day of testing. The cultured cells were obtained at passage #99 and grown in RPMI media supplemented with 5% fetal calf serum, and 2 mM glutamine, 100 u/ml penicillin, 100 U/ml streptomycin, and 0.25 μg/ml amphotericin. The cultures were maintained in a humidified atmosphere of 95% air and 5% CO2 at 37° C. The cultures were passaged at preconfluent densities using a solution of 0.05% trypsin and 0.53 mM EDTA. Cells were plated at 1000 cells/well for 96 well flat-bottom microtiter plates.
Tumor cell growth inhibition was assessed using the Sulforhodamine B (SRB) protein binding assay. In this assay, tumor cells were plated in 96-well plates and treated with drug-containing media for six days (continuous exposure). For each plate, 6 wells were designated as no treatment controls, six wells as vehicle (0.1% DMSO) controls, and the remaining wells for drug dilutions with three wells per drug concentration. At the end of the exposure period, the cells were fixed and stained with sulforhodamine B, a protein binding dye. The dye was then solubilized, and the optical density of the resulting solution was determined on a 96-well plate reader. The mean dye intensity of the treated wells was then divided by the mean dye intensity in the control wells (6 wells of each) to determine the effect of the drug on the cells. Dye intensity is proportional to the number of cells or amount of protein per well. The resultant "percent inhibition" value then represents the degree of growth inhibition caused by the drug.
An IC50 value was also determined for the compound of Example 3. This value is equivalent to the concentration of drug needed to inhibit tumor cell growth by 50% relative to a vehicle control. IC50 value was obtained graphically by connecting the mean values for each drug concentration tested. Each experiment included at least three wells per drug concentration. Concentration was plotted on a log scale on the X-axis.

The conditions of data set [3]: chronic administration, high cancer-risk patients; cited from earlier work.
The test system of data set [4] is colonic polyps. The following applies: patients; cited from earlier work.

Each structure is given as a SMILES string.

As usually defined, the inhibition is the drop in the measured response relative to a control, in per cent. As for `O=C(Cn1nc(-c2ccccc2)c2ccccc2c1=O)NCc1ccccc1` [Example 1, 2-(1-Oxo-4-Phenylphthalazin-2-yl)-N-Benzylethanamide], in data set [1] (Homo sapiens), the fold induction at 100 µM was 7.3. The inhibition at 100 µM in data set [2] (six days continuous exposure) was found to be 90%.

For the molecule `O=C(Cn1nc(-c2ccc(F)cc2)c2ccccc2c1=O)NCc1ccccc1` [Example 2], in data set [1] (Homo sapiens), the fold induction at 100 µM was determined as 1.2. In data set [2] (six days continuous exposure), the inhibition at 100 µM is -7.8%.

Usually EC50 stands for the concentration at which the effect is half-maximal. A lower EC50 goes with a more potent agent. One may read the IC50 as the midpoint of a concentration-inhibition curve. As for `O=C(Cn1nc(-c2ccc(Cl)cc2)c2ccccc2c1=O)NCc1ccccc1` [Example 3, 2-[4-(4-Chlorophenyl)-1-Oxo-Phthalazin-2-yl]-N-Benzylethanamide], the “Apoptosis Level (Mean OD Value ± SD)” value is on record as 0.156 ± 0.02 OD in data set [1] (Dose 0.001 μM); 0.165 ± 0.03 OD in data set [1] (Dose 0.01 μM); 0.161 ± 0.02 OD in data set [1] (Dose 0.1 μM); 0.208 ± 0.01 OD in data set [1] (Dose 1.0 μM); 1.789 ± 0.32 OD in data set [1] (Dose 10.0 μM); 2.763 ± 0.29 OD in data set [1] (Dose 100.0 μM). The EC50 in data set [1] (Homo sapiens, SW480, 48 h) is 7.2 µM; in data set [1], 7.19 µM. Further, in data set [1] (Homo sapiens), the fold induction at 100 µM came out at 6.1. In addition, the inhibition at 100 µM in data set [2] (six days continuous exposure) was 86.1%. Moreover, the activity at 0.001 µM in data set [2] (Dose 0.001 μM, read-out: Growth Inhibition (% Vehicle ± SD)) was 105 ± 20%. In data set [2] (Dose 0.01 μM, read-out: Growth Inhibition (% Vehicle ± SD)), the activity at 0.01 µM amounted to 99 ± 11.9%. The activity at 0.1 µM in data set [2] (Dose 0.1 μM, read-out: Growth Inhibition (% Vehicle ± SD)) was determined as 91 ± 5%. Moreover, the activity at 1 µM in data set [2] (Dose 1.0 μM, read-out: Growth Inhibition (% Vehicle ± SD)) was 94 ± 17.9%. Moreover, the activity at 10 µM in data set [2] (Dose 10.0 μM, read-out: Growth Inhibition (% Vehicle ± SD)) turned out to be 34 ± 17.8%. Further, the activity at 100 µM in data set [2] (Dose 100.0 μM, read-out: Growth Inhibition (% Vehicle ± SD)) came to 6 ± 1.6%. The IC50 in data set [2] (six days continuous exposure, read-out: IC50 (tumor cell growth, relative to vehicle control)) amounted to 5.18 µM.

As for `CC1=C(CC(=O)O)c2cc(F)ccc2/C1=C\c1ccc([S+](C)[O-])cc1` (centres unmarked) [sulindac], the gastric side effects entry in data set [3] is “causes gastric side effects in many such patients”. Moreover, the “effect on colonic polyps” value in data set [4] is “Polyps virtually disappear”.
